According to patent publication US12544395B2, “Combination compositions comprising a beta-lactamase inhibitor and uses thereof” (priority 2018, dated 2026):
≈ marks a conversion by molar mass, not a printed value. Where “and” joins values, the source holds several entries; their conditions need not be identical. Equal entries are not always repeated.

Key:
[1] = test system: ESBL-expressing Enterobacteriaceae (n = 33); experiment: Broth microdilution MIC, ceftibuten/Compound 2 vs IV comparators; format: cell-based; details: for Number of strains at MIC value 0.5 mg/L / Number of strains at MIC value 1 mg/L / Number of strains at MIC value 2 mg/L / Number of strains at MIC value 4 mg/L / Number of strains at MIC value 8 mg/L / Number of strains at MIC value 16 mg/L / Number of strains at MIC value […] / Number of strains at MIC value ≤0.06 mg/L / Number of strains at MIC value ≥32 mg/L: ESBL-expressing (n = 33); for MIC50 / MIC90: iv
[2] = test system: KPC-expressing Enterobacteriaceae (n = 77); experiment: organism not typed; format: cell-based; details: for Number of strains at MIC value 0.5 mg/L / Number of strains at MIC value 1 mg/L / Number of strains at MIC value 2 mg/L / Number of strains at MIC value 4 mg/L / Number of strains at MIC value 8 mg/L / Number of strains at MIC value 16 mg/L / Number of strains at MIC value […] / Number of strains at MIC value ≤0.06 mg/L / Number of strains at MIC value ≥32 mg/L: KPC-expressing (n = 77); for MIC50 / MIC90: iv
[3] = test system: OXA-48-expressing Enterobacteriaceae (n = 39); experiment: Broth microdilution MIC, ceftibuten/Compound 2 vs IV comparators
[4] = test system: AmpC/CMY-expressing Enterobacteriaceae (n = 44); experiment: as above; format: cell-based; details: for Number of strains at MIC value 0.5 mg/L / Number of strains at MIC value 1 mg/L / Number of strains at MIC value 2 mg/L / Number of strains at MIC value 4 mg/L / Number of strains at MIC value 8 mg/L / Number of strains at MIC value 16 mg/L / Number of strains at MIC value […] / Number of strains at MIC value ≤0.06 mg/L / Number of strains at MIC value ≥32 mg/L: AmpC/CMY-expressing (n = 44); for MIC50 / MIC90: iv

C[C@@H](O)[C@H]1C(=O)N2C(C(=O)O)=C(S[C@@H]3CN[C@H](C(=O)N(C)C)C3)[C@H](C)[C@H]12 [Meropenem]
Number of strains at MIC value 0.5 mg/L [1]: 0 | Number of strains at MIC value 1 mg/L [1]: 1 | Number of strains at MIC value 2 mg/L [1]: 1 | Number of strains at MIC value 4 mg/L [1]: 0 | Number of strains at MIC value 8 mg/L [1]: 1 | Number of strains at MIC value 16 mg/L [1]: 0 | Number of strains at MIC value […] [1]: 1 and 0 | Number of strains at MIC value ≤0.06 mg/L [1]: 29 | Number of strains at MIC value ≥32 mg/L [1]: 0 | MIC50 [1]: ≤ 0.06 µg/mL | MIC90 [1]: 0.125 µg/mL (≈ 0.326 µM) | Number of strains at MIC value 0.5 mg/L [2]: 1 | Number of strains at MIC value 1 mg/L [2]: 0 | Number of strains at MIC value 2 mg/L [2]: 3 | Number of strains at MIC value 4 mg/L [2]: 4 | Number of strains at MIC value 8 mg/L [2]: 11 | Number of strains at MIC value 16 mg/L [2]: 13 | Number of strains at MIC value […] [2]: 0 | Number of strains at MIC value ≤0.06 mg/L [2]: 1 | Number of strains at MIC value ≥32 mg/L [2]: 44 | MIC50 [2]: ≥ 32 µg/mL | MIC90 [2]: ≥ 32 µg/mL | MIC50 [3]: 2 µg/mL (≈ 5.22 µM) | MIC90 [3]: 8 µg/mL (≈ 20.9 µM) | Number of strains at MIC value 0.5 mg/L [4]: 2 | Number of strains at MIC value 1 mg/L [4]: 1 | Number of strains at MIC value 2 mg/L [4]: 0 | Number of strains at MIC value 4 mg/L [4]: 3 | Number of strains at MIC value 8 mg/L [4]: 0 | Number of strains at MIC value 16 mg/L [4]: 0 | Number of strains at MIC value […] [4]: 2 | Number of strains at MIC value ≤0.06 mg/L [4]: 34 | Number of strains at MIC value ≥32 mg/L [4]: 0 | MIC50 [4]: ≤ 0.06 µg/mL | MIC90 [4]: 0.5 µg/mL (≈ 1.3 µM)

CN(C)c1cc(NC(=O)CNC(C)(C)C)c(O)c2c1C[C@H]1C[C@H]3[C@H](N(C)C)C(O)=C(C(N)=O)C(=O)[C@@]3(O)C(O)=C1C2=O [Tigecycline]
Number of strains at MIC value 0.5 mg/L [1]: 11 | Number of strains at MIC value 1 mg/L [1]: 3 | Number of strains at MIC value 2 mg/L [1]: 3 | Number of strains at MIC value 4 mg/L [1]: 2 | Number of strains at MIC value 8 mg/L [1]: 0 | Number of strains at MIC value 16 mg/L [1]: 0 | Number of strains at MIC value […] [1]: 4 and 10 | Number of strains at MIC value ≤0.06 mg/L [1]: 0 | Number of strains at MIC value ≥32 mg/L [1]: 0 | MIC50 [1]: 0.5 µg/mL (≈ 0.854 µM) | MIC90 [1]: 2 µg/mL (≈ 3.41 µM) | Number of strains at MIC value 0.5 mg/L [2]: 19 | Number of strains at MIC value 1 mg/L [2]: 34 | Number of strains at MIC value 2 mg/L [2]: 15 | Number of strains at MIC value 4 mg/L [2]: 5 | Number of strains at MIC value 8 mg/L [2]: 0 | Number of strains at MIC value 16 mg/L [2]: 0 | Number of strains at MIC value […] [2]: 0 and 4 | Number of strains at MIC value ≤0.06 mg/L [2]: 0 | Number of strains at MIC value ≥32 mg/L [2]: 0 | MIC50 [2]: 1 µg/mL (≈ 1.71 µM) | MIC90 [2]: 2 µg/mL (≈ 3.41 µM) | MIC50 [3]: 0.5 µg/mL (≈ 0.854 µM) | MIC90 [3]: 2 µg/mL (≈ 3.41 µM) | Number of strains at MIC value 0.5 mg/L [4]: 8 | Number of strains at MIC value 1 mg/L [4]: 10 | Number of strains at MIC value 2 mg/L [4]: 10 | Number of strains at MIC value 4 mg/L [4]: 4 | Number of strains at MIC value 8 mg/L [4]: 2 | Number of strains at MIC value 16 mg/L [4]: 0 | Number of strains at MIC value […] [4]: 4 and 6 | Number of strains at MIC value ≤0.06 mg/L [4]: 0 | Number of strains at MIC value ≥32 mg/L [4]: 0 | MIC50 [4]: 1 µg/mL (≈ 1.71 µM) | MIC90 [4]: 4 µg/mL (≈ 6.83 µM)
